Results as given in US11312723B2, “Pyranopyrazole and pyrazolopyridine immunomodulators for treatment of autoimmune diseases” (The Rockefeller University, priority 2017, dated 2022).

Key:
Human FXIIa = Human FXIIa (Homo sapiens (Human), UniProt P00748); assay: Factor XIIa (FXIIa) inhibitory activity, chromogenic substrate (Pefachrome XIIa) cleavage; type: biochemical; settings: 10 min pre-incubation, Pefachrome XIIa 400 μM
Human alpha-thrombin = Human alpha-thrombin (Homo sapiens (Human), UniProt P00734); assay: Thrombin counterscreen for selectivity, fluorogenic substrate cleavage; type: biochemical; settings: 10 min pre-incubation, Boc-Val-Pro-Arg-AMC 20 μM

Sequence of Human FXIIa (P00748 373-615): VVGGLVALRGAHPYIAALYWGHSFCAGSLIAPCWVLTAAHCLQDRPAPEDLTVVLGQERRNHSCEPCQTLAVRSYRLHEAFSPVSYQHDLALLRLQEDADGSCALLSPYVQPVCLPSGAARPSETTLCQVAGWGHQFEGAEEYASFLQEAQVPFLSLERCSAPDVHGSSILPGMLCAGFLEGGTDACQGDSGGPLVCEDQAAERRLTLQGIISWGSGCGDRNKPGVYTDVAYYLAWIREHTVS
Sequence of Human FXIIa (P00748 20-372 partner): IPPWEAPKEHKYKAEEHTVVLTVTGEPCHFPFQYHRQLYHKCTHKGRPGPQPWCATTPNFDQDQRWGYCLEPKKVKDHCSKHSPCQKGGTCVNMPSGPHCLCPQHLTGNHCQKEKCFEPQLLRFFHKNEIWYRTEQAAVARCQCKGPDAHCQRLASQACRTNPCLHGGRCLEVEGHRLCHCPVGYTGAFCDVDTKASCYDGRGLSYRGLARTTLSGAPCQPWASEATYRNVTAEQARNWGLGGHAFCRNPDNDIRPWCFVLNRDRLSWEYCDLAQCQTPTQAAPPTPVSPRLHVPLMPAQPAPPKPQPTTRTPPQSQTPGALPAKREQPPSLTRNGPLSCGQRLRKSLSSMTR

| IC50 (Human FXIIa) | IC50 (Human alpha-thrombin) | Structure (SMILES) |
| --- | --- | --- |
| 0.15 µM | 45 µM | CC1(C)CC(C(=O)n2nc3c(c2N)CCN(S(C)(=O)=O)C3)c2ccccc2N1 (stereo not drawn) [Example 39, (3-amino-6-(methylsulfonyl)-4,5,6,7-tetrahydropyrazolo[3,4-c]pyridin-2-yl)(2,2-dimethyl-1,2,3,4-tetrahydroquinolin-4-yl)methanone] |
| 60 µM | > 120 µM | Nc1c2c(nn1C(=O)C1CCNc3ccc(F)cc31)CN(c1ccccn1)CC2 (stereo not drawn) [Example 167, (3-amino-6-(pyridin-2-yl)-4,5,6,7-tetrahydro-pyrazolo[3,4-c]pyridin-2-yl)(6-fluoro-1,2,3,4-tetrahydro-quinolin-4-yl)methanone] |
| 0.03 µM | 12.5 µM | CS(=O)(=O)N1CCc2c(nn(C(=O)C3CCNc4ccc(F)cc43)c2N)C1 (single isomer, unassigned) [Example 18, (S*)-(3-amino-6-(methylsulfonyl)-4,5,6,7-tetrahydropyrazolo[3,4-c]pyridin-2-yl)(6-fluoro-1,2,3,4-tetrahydroquinolin-4-yl)methanone] |
| 0.04 µM | 23 µM | Cc1cccc2c1NCCC2C(=O)n1nc2c(c1N)CCN(S(C)(=O)=O)C2 (stereo not drawn) [Example 34, (3-amino-6-(methylsulfonyl)-4,5,6,7-tetrahydropyrazolo[3,4-c]pyridine-2-yl)(8-methyl-1,2,3,4-tetrahydroquinolin-4-yl)methanone] |
| 0.7 µM | > 50 µM | CC(=O)N1CCc2nn(C(=O)C3CCNc4ccccc43)c(N)c2C1 (stereo not drawn) [Example 95, 1-(3-amino-2-(1,2,3,4-tetrahydro-quinoline-4-carbonyl)-6,7-dihydro-2H-pyrazolo[4,3-c]pyridin-5(4H)-yl)ethanone] |
| 60 µM | > 65 µM | Nc1nn(C(=O)C2CCNc3ccccc32)c2c1CCN(C(=O)c1ccccc1)C2 (stereo not drawn) [Example 110, (3-amino-1-(1,2,3,4-tetrahydro-quinoline-4-carbonyl)-4,5-dihydro-1H-pyrazolo[3,4-c]pyridin-6(7H)-yl)(phenyl)-methanone] |
| 0.05 µM | > 100 µM | Cc1cc(F)cc2c1NCCC2C(=O)n1nc2c(c1N)CCOC2 (single isomer, unassigned) [Example 76, (S*)-(3-amino-4,5-dihydropyrano[3,4-c]pyrazol-2(7H)-yl)(6-fluoro-8-methyl-1,2,3,4-tetrahydroquinolin-4-yl)methanone] |
| 15 µM | 15 µM | CS(=O)(=O)N1CCc2c(N)nn(C(=O)C3CCNc4ccc(-c5ccncc5)cc43)c2C1 (stereo not drawn) [Example 169, (3-amino-6-(methylsulfonyl)--4,5,6,7-tetrahydro-pyrazolo[3,4-c]pyridin-1-yl)(6-(pyridin-4-yl)-1,2,3,4-tetrahydro-quinolin-4-yl)methanone] |
| 1 µM | 17 µM | Nc1c2c(nn1C(=O)C1CCNc3ccccc31)CN(C(=O)OCc1ccccc1)CC2 (stereo not drawn) [Example 116, benzyl 3-amino-2-(1,2,3,4-tetrahydro-quinoline-4-carbonyl)-4,5-dihydro-2H-pyrazolo[3,4-c]pyridine-6(7H)-carboxylate] |
| 0.03 µM | > 100 µM | CCN1CCc2c(nn(C(=O)C3CCNc4ccc(F)cc43)c2N)C1 (stereo not drawn) [Example 163, (3-amino-6-ethyl-4,5,6,7-tetrahydro-pyrazolo[3,4-c]pyridin-2-yl)(6-fluoro-1,2,3,4-tetrahydro-quinolin-4-yl)methanone] |
| 80 µM | > 150 µM | CC(=O)N1CCc2c(N)nn(C(=O)C3CCNc4ccccc43)c2C1 (stereo not drawn) [Example 108, 1-(3-amino-1-(1,2,3,4-tetrahydro-quinoline-4-carbonyl)-4,5-dihydro-1H-pyrazolo[3,4-c]pyridin-6(7H)-yl)ethanone] |
| 32 µM | > 70 µM | CCS(=O)(=O)N1CCc2c(N)nn(C(=O)C3CCNc4ccccc43)c2C1 (stereo not drawn) [Example 126, (3-amino-6-(ethylsulfonyl)-4,5,6,7-tetrahydro-pyrazolo[3,4-c]pyridin-1-yl)(1,2,3,4-tetrahydro-quinolin-4-yl)methanone] |
| 0.04 µM | 20 µM | CS(=O)(=O)N1CCc2c(nn(C(=O)C3CCNc4ccc(Cl)cc43)c2N)C1 (stereo not drawn) [Example 14, (3-amino-6-(methylsulfonyl)-4,5,6,7-tetrahydropyrazolo[3,4-c]pyridin-2-yl)(6-chloro-1,2,3,4-tetrahydroquinolin-4-yl)methanone] |
| 1.7 µM | 4.4 µM | CS(=O)(=O)N1CCc2c(nn(C(=O)C3CCNc4ncccc43)c2N)C1 (stereo not drawn) [Example 41, (3-amino-6-(methylsulfonyl)-4,5,6,7-tetrahydropyrazolo[3,4-c]pyridin-2-yl)(1,2,3,4-tetrahydro-1,8-naphthyridin-4-yl)methanone] |
| 0.08 µM | 95 µM | Nc1c2c(nn1C(=O)[C@H]1CCNc3ccc(F)cc31)COCC2 (single isomer, unassigned) [Example 196, (S*)-(3-amino-4,5-dihydropyrano[3,4-c]pyrazol-2(7H)-yl)(6-fluoro-1,2,3,4-tetrahydro-quinolin-4-yl)methanone] |
| 2 µM | 3.5 µM | CS(=O)(=O)N1CCc2c(nn(C(=O)C3CCNc4ccc(-c5ccncc5)cc43)c2N)C1 (stereo not drawn) [Example 168, (3-amino-6-(methylsulfonyl)-4,5,6,7-tetrahydro-pyrazolo[3,4-c]pyridin-2-yl)(6-(pyridin-4-yl)-1,2,3,4-tetrahydro-quinolin-4-yl)methanone] |
| 0.45 µM | > 80 µM | COC(=O)N1CCc2c(nn(C(=O)C3CCNc4ccccc43)c2N)C1 (stereo not drawn) [Example 114, methyl 3-amino-2-(1,2,3,4-tetrahydro-quinoline-4-carbonyl)-4,5-dihydro-2H-pyrazolo[3,4-c]pyridine-6(7H)-carboxylate] |
| 0.03 µM | > 60 µM | CS(=O)(=O)N1CCc2c(nn(C(=O)C3CCNc4c(Cl)cccc43)c2N)C1 (single isomer, unassigned) [Example 60, (S*)-(3-amino-6-(methylsulfonyl)-4,5,6,7-tetrahydropyrazolo[3,4-c]pyridin-2-yl)(8-chloro-1,2,3,4-tetrahydroquinolin-4-yl)methanone] |
| 40 µM | > 70 µM | CS(=O)(=O)N1CCc2c(N)nn(C(=O)C3CCNc4ccc(C(F)(F)F)cc43)c2C1 (stereo not drawn) [Example 25, (3-amino-6-(methylsulfonyl)-4,5,6,7-tetrahydropyrazolo[3,4-c]pyridin-1-yl)(6-(trifluoromethyl)-1,2,3,4-tetrahydroquinolin-4-yl)methanone] |
| 95 µM | > 100 µM | CNC(=O)N1CCc2c(N)nn(C(=O)C3CCNc4ccccc43)c2C1 (stereo not drawn) [Example 113, 3-amino-N-methyl-1-(1,2,3,4-tetrahydro-quinoline-4-carbonyl)-4,5-dihydro-1H-pyrazolo[3,4-c]pyridine-6(7H)-carboxamide] |
| 0.4 µM | > 80 µM | CC(C)C(=O)N1CCc2c(nn(C(=O)C3CCNc4ccccc43)c2N)C1 (stereo not drawn) [Example 121, 1-(3-amino-2-(1,2,3,4-tetrahydro-quinoline-4-carbonyl)-4,5-dihydro-2H-pyrazolo[3,4-c]pyridin-6(7H)-yl)-2-methylpropan-1-one] |
| 45 µM | 5 µM | Nc1nn(C(=O)C2CCNc3ccccc32)c2c1CCN(C(=O)OCc1ccccc1)C2 (stereo not drawn) [Example 117, benzyl 3-amino-1-(1,2,3,4-tetrahydro-quinoline-4-carbonyl)-4,5-dihydro-1H-pyrazolo[3,4-c]pyridine-6(7H)-carboxylate] |
| 0.17 µM | > 80 µM | Cc1cccc2c1NCCC2C(=O)n1nc2c(c1N)COCC2 (stereo not drawn) [Example 188, (3-amino-6,7-dihydropyrano[4,3-c]pyrazol-2(4H)-yl)(8-methyl-1,2,3,4-tetrahydro-quinolin-4-yl)methanone] |
| 0.03 µM | 1.5 µM | CS(=O)(=O)N1CCc2c(nn(C(=O)[C@H]3CCCc4[nH]c(Cl)cc43)c2N)C1 (single isomer, unassigned) [Example 131, (S*)-(3-amino-6-(methylsulfonyl)-4,5,6,7-tetrahydro-pyrazolo[3,4-c]pyridin-2-yl)(2-chloro-4,5,6,7-tetrahydro-1H-indol-4-yl)methanone] |
| 0.04 µM | > 50 µM | CC(=O)N1CCc2c(nn(C(=O)c3cccc4[nH]c(C)cc34)c2N)C1 [Example 99, 1-(3-amino-2-(2-methyl-1H-indole-4-carbonyl)-4,5-dihydro-2H-pyrazolo[3,4-c]pyridin-6(7H)-yl)ethanone] |
| 0.3 µM | > 25 µM | CCc1cc2c([nH]1)CCCC2C(=O)n1nc2c(c1N)CN(C(=O)OCc1ccccc1)CC2 (stereo not drawn) [Example 4, Benzyl 3-amino-2-(2-ethyl-4,5,6,7-tetrahydro-1H-indole-4-carbonyl)-6,7-dihydro-2H-pyrazolo[4,3-c]pyridine-5(4H)-carboxylate] |
| 0.35 µM | > 80 µM | CN(C)C(=O)N1CCc2c(nn(C(=O)C3CCNc4ccccc43)c2N)C1 (stereo not drawn) [Example 123, 3-amino-N,N-dimethyl-2-(1,2,3,4-tetrahydro-quinoline-4-carbonyl)-4,5-dihydro-2H-pyrazolo[3,4-c]pyridine-6(7H)-carboxamide] |
| 1 µM | > 100 µM | Nc1c2c(nn1C(=O)C1CCNc3ccccc31)CN(S(=O)(=O)c1ccccc1)CC2 (stereo not drawn) [Example 105, (3-amino-6-(phenylsulfonyl)-4,5,6,7-tetrahydro-pyrazolo[3,4-c]pyridin-2-yl)(1,2,3,4-tetrahydro-quinolin-4-yl)methanone] |
| 0.05 µM | 20 µM | CCN1CCc2c(nn(C(=O)C3CCNc4ccc(Cl)cc43)c2N)C1 (stereo not drawn) [Example 161, (3-amino-6-ethyl-4,5,6,7-tetrahydro-pyrazolo[3,4-c]pyridin-2-yl)(6-chloro-1,2,3,4-tetrahydro-quinolin-4-yl)methanone] |
| 2 µM | > 50 µM | CNS(=O)(=O)N1CCc2c(nn(C(=O)C3CCNc4ccccc43)c2N)C1 (stereo not drawn) [Example 111, 3-amino-N-methyl-2-(1,2,3,4-tetrahydro-quinoline-4-carbonyl)-4,5-dihydro-2H-pyrazolo[3,4-c]pyridine-6(7H)-sulfonamide] |
